Values of other authors as cited in publication PMC8513935.

assay: derived by the authors as gas->solvent minus gas->water (a hypothetical dry solvent; the ESI), not a two-phase measurement; conditions: Acetone, 25 C

SMILES | log K of transfer, water to solvent
OC1CCCCC1 | 1.08 log10 K
CCCCCCl | 3.51 log10 K

same assay, conditions: Benzene, 25 C

log K of transfer, water to solvent | SMILES
1.81 log10 K | CCCCC(C)=O
2.91 log10 K | CCCCCCCCO
1.32 log10 K | Cc1cccc(C)n1

same assay, conditions: Butanone, 25 C

log K of transfer, water to solvent | SMILES
3.01 log10 K | CCCCCCCCO

same assay, conditions: Butyronitrile, 25 C

log K of transfer, water to solvent | SMILES
2.69 log10 K | CCCCCCCCO

same assay, conditions: CCl4, 25 C

log K of transfer, water to solvent | SMILES
1.52 log10 K | CCCCC(C)=O
2.09 log10 K | CCCCCCCCO

same assay, conditions: Chlorobenzene, 25 C

log K of transfer, water to solvent | SMILES
1.87 log10 K | CCCCC(C)=O

same assay, conditions: Chloroform, 25 C

SMILES | log K of transfer, water to solvent
OC1CCCCC1 | 1.12 log10 K
Cc1cccc(C)n1 | 2.31 log10 K

same assay, conditions: Cyclohexane, 25 C

log K of transfer, water to solvent | SMILES
1.02 log10 K | CCCCC(C)=O
0.67 log10 K | Cc1cccc(C)n1

same assay, conditions: Decan-1-ol, 25 C

SMILES | log K of transfer, water to solvent
OC1CCCCC1 | 1.48 log10 K

same assay, conditions: Di-n-butyl ether, 25 C

log K of transfer, water to solvent | SMILES
3.46 log10 K | CCCCCCl

same assay, conditions: Hexadecane, 25 C

log K of transfer, water to solvent | SMILES
0.876 log10 K | CCCCC(C)=O
3.17 log10 K | CCCCCCl
1.62 log10 K | CCCCCCCCO
0.39 log10 K | Cc1cccc(C)n1

SMILES | log K of transfer, water to solvent
CC(C)(C)c1ccccc1 | 4.09 log10 K
OC1CCCCC1 | -0.252 log10 K

same assay, conditions: Hexan-1-ol, 25 C

log K of transfer, water to solvent | SMILES
3.29 log10 K | CCCCCCCCO

same assay, conditions: Hexane, 25 C

log K of transfer, water to solvent | SMILES
1.02 log10 K | CCCCC(C)=O
3.45 log10 K | CCCCCCl

same assay, conditions: Methanol, 25 C

log K of transfer, water to solvent | SMILES
1.41 log10 K | CCCCC(C)=O
2.89 log10 K | CCCCCCCCO

SMILES | log K of transfer, water to solvent
CC(C)(C)c1ccccc1 | 3.73 log10 K

same assay, conditions: Octan-1-ol(dry), 25 C

log K of transfer, water to solvent | SMILES
1.27 log10 K | CCCCC(C)=O
3.03 log10 K | CCCCCCCCO

SMILES | log K of transfer, water to solvent
OC1CCCCC1 | 1.17 log10 K

same assay, conditions: Propan-2-ol, 25 C

SMILES | log K of transfer, water to solvent
CC(C)(C)c1ccccc1 | 3.78 log10 K

same assay, conditions: Tetrahydrofuran, 25 C

SMILES | log K of transfer, water to solvent
CC(C)(C)c1ccccc1 | 4.77 log10 K
CCCCCCl | 4.11 log10 K

same assay, conditions: Toluene, 25 C

log K of transfer, water to solvent | SMILES
1.7 log10 K | CCCCC(C)=O

assay: log P octanol/water from commercial databases, averaged (the ESI); conditions: Octanol (wet), 25 C

log K of transfer, water to solvent | SMILES
1.38 log10 K | CCCCC(C)=O
3.11 log10 K | CCCCCCl
3.07 log10 K | CCCCCCCCO
1.68 log10 K | Cc1cccc(C)n1

SMILES | log K of transfer, water to solvent
CC(C)(C)c1ccccc1 | 4.11 log10 K
OC1CCCCC1 | 1.23 log10 K

assay: experimental, compiled by the authors from the literature (the ESI cites the sources); conditions: Benzene, 25 C

log K of transfer, gas to solvent | SMILES
4.22 log10 K | CCCCC(C)=O
5.91 log10 K | CCCCCCCCO
4.69 log10 K | Cc1cccc(C)n1

same assay, conditions: Butanone, 25 C

log K of transfer, gas to solvent | SMILES
6.01 log10 K | CCCCCCCCO

same assay, conditions: Butyronitrile, 25 C

log K of transfer, gas to solvent | SMILES
5.69 log10 K | CCCCCCCCO

same assay, conditions: CCl4, 25 C

log K of transfer, gas to solvent | SMILES
3.93 log10 K | CCCCC(C)=O
5.09 log10 K | CCCCCCCCO

same assay, conditions: Chlorobenzene, 25 C

log K of transfer, gas to solvent | SMILES
4.28 log10 K | CCCCC(C)=O

same assay, conditions: Chloroform, 25 C

SMILES | log K of transfer, gas to solvent
OC1CCCCC1 | 5.13 log10 K
Cc1cccc(C)n1 | 5.68 log10 K

same assay, conditions: Cyclohexane, 25 C

log K of transfer, gas to solvent | SMILES
3.42 log10 K | CCCCC(C)=O
4.04 log10 K | Cc1cccc(C)n1

same assay, conditions: Decan-1-ol, 25 C

SMILES | log K of transfer, gas to solvent
OC1CCCCC1 | 5.48 log10 K

same assay, conditions: Di-n-butyl ether, 25 C

log K of transfer, gas to solvent | SMILES
3.51 log10 K | CCCCCCl

same assay, conditions: Hexadecane, 25 C

log K of transfer, gas to solvent | SMILES
3.28 log10 K | CCCCC(C)=O
3.22 log10 K | CCCCCCl
4.62 log10 K | CCCCCCCCO
3.76 log10 K | Cc1cccc(C)n1

SMILES | log K of transfer, gas to solvent
CC(C)(C)c1ccccc1 | 4.41 log10 K
OC1CCCCC1 | 3.76 log10 K

same assay, conditions: Hexan-1-ol, 25 C

log K of transfer, gas to solvent | SMILES
6.29 log10 K | CCCCCCCCO

same assay, conditions: Hexane, 25 C

log K of transfer, gas to solvent | SMILES
3.43 log10 K | CCCCC(C)=O
3.5 log10 K | CCCCCCl

same assay, conditions: Methanol, 25 C

log K of transfer, gas to solvent | SMILES
3.82 log10 K | CCCCC(C)=O
5.89 log10 K | CCCCCCCCO

SMILES | log K of transfer, gas to solvent
CC(C)(C)c1ccccc1 | 4.05 log10 K

same assay, conditions: Octan-1-ol, 25 C

log K of transfer, gas to solvent | SMILES
3.68 log10 K | CCCCC(C)=O
6.03 log10 K | CCCCCCCCO

SMILES | log K of transfer, gas to solvent
OC1CCCCC1 | 5.18 log10 K

same assay, conditions: Propan-2-ol, 25 C

SMILES | log K of transfer, gas to solvent
CC(C)(C)c1ccccc1 | 4.1 log10 K

same assay, conditions: Propanone, 25 C

SMILES | log K of transfer, gas to solvent
OC1CCCCC1 | 5.09 log10 K
CCCCCCl | 3.56 log10 K

same assay, conditions: Tetrahydrofuran, 25 C

SMILES | log K of transfer, gas to solvent
CC(C)(C)c1ccccc1 | 5.09 log10 K
CCCCCCl | 4.16 log10 K

same assay, conditions: Toluene, 25 C

log K of transfer, gas to solvent | SMILES
4.11 log10 K | CCCCC(C)=O

same assay, conditions: Water, 25 C

log K of transfer, gas to solvent | SMILES
2.41 log10 K | CCCCC(C)=O
0.05 log10 K | CCCCCCl
3 log10 K | CCCCCCCCO
3.37 log10 K | Cc1cccc(C)n1

SMILES | log K of transfer, gas to solvent
CC(C)(C)c1ccccc1 | 0.32 log10 K
OC1CCCCC1 | 4.01 log10 K
